Assay results published in PMC6508865, “Dynamics of thymol dietary supplementation in quail (Coturnix japonica): Linking bioavailability, effects on egg yolk total fatty acids and performance traits” (PLoS ONE, 2019).
Where two headings read alike, the source gives them in different places.

Legend:
[1] = Thymol quantification in egg yolk (HS-SPME/GC-MS) during chronic dietary supplementation; assay type: in vivo, Coturnix japonica; conditions: for concentration at 2 days of supplementation / concentration at 9 days of supplementation / concentration at 16 days of supplementation / concentration at 26 days of supplementation / concentration at 17 days after supplement withdrawal: female, Japanese quail (Coturnix japonica), egg yolk, oral, read-out: THY concentration in egg yolk
Source text: (§1) A total of 50 eighty-five days-old female quail of homogeneous body weights (251 ± 1 g; Mean ± SE) and in their egg-laying peak were selected from an initial group of 96 female individuals. All birds continued receiving a basal diet between 85 and 100 days of age and all variables (see below for details) were registered along this period (Pre-supplementation period, Fig 1). From 100 to 128 days of age (S period, Fig 1), females were randomly assigned to either a chronic dietary supplementation with one of 3 THY doses (THY2, THY4 and THY6; 10 females each) or to one of 2 control groups (basal diet, BASAL, and basal diet with vehicle solution, VEHICLE; 10 females each). Once finished the S period, half of the quail were slaughtered for histological analysis (n = 25; Slaughter 1, Fig 1) and the other half were subjected to a pS period of 21 days, during which all females received the BASAL diet (pS, Fig 1). After this period, the remaining 25 animals were also slaughtered for histological analysis (Slaughter 2, Fig 1). In this way, we assessed whether THY induced changes in variables indicative of tissue damage and if so, whether the potential damages could reverse after 3 weeks of supplement withdrawal.
(§2) To assess changes in egg yolk total FA composition, egg physical characteristics, laying rate, body weight, feed intake and general welfare, during the S and pS periods, five sampling points were defined (Sample points, Fig 1): one initial sample point (at 0 days of S); three sample points during the S period (at 7, 14 and 28 days of S); and one sample point at the end of the pS period (21 days of pS). It should be noted that for determinations of THY concentration, eggs and quail droppings were collected offset from the other variables measured by 2 days, thus were collected on days 2, 9, 16, and 26 days of S, and 17 days of pS, respectively.
Thymol was commercially obtained from Sigma-Aldrich (SAFC®, ⩾99%; FCC, Saint Louis, MO, USA). Supplemented quail were provided 2, 4 or 6.25 g of THY per kg of feed. For this end, THY was prepared in a 2.4, 4.8 and 7.5% w/v ethanolic solution and uniformly sprayed on fresh feed. The feed was prepared and administrated daily, to minimize THY volatilization from feed before its consumption by females. The doses were selected considering two factors. The first, the concentration range for which the transfer of THY to the chicken and/or quail egg has been established. Second, the concentrations of THY supplementation that have shown biological effects. […] In this context, THY4 is and intermediate dose between the last two. Nutrient and FA compositions of the diets supplied were identical between each other and are reported in S1, S2 and S3 Tables, and are in accordance with the National Research Council recommendation.
Egg yolks and droppings of each female were obtained at each sample point (Sample points, Fig 1) and THY concentration was immediately measured by head space-solid phase microextraction followed by gas chromatography-mass spectrometry (HS-SPME/GC-MS) according to Fernandez et al.. SPME was performed with a manual holder with 100 um polydimethylsiloxane (PDMS) fiber. An aliquot of egg yolk (3 g), droppings (5 g) or feed (5 g) was put in a sealed 20 mL glass vial, spiked at the corresponding level with the standard m-cresol (Sigma-Aldrich; ≥ 99% (GC); Saint Louis, MO, USA) stock solution, and vortexed for 5 min. The vials were placed in a water bath and the PDMS fiber was exposed to the headspace for 30 min at 60°C and 5 min at 40°C for egg yolk and droppings or feed, respectively. The fiber was then inserted directly into the GC injector for desorption at 250°C for 10 min in splitless mode. Chromatography analysis was carried out in a Perkin Elmer Clarus 600 equipped with a PSSI injector and a quadrupole MS detector (Perkin Elmer, USA). Turbo Mass 5.4.2 software was used to control and acquire data from GC–MS. […]

[2] = system: female Japanese quail (Coturnix japonica); test: Female performance traits (body weight, feed intake, egg laying, egg physical characteristics); assay type: in vivo
Source text: as §1, §2
Female performance was evaluated through the measurement of body weight, feed intake, egg laying rate, egg physical characteristics and a general welfare quality assessment. Body weight was measured once a week throughout the experimental period. Daily feed intake (DFI) was estimated as the difference between the amount of feed supplied to each animal (60 g) and the rest that remained in the feeders the next day (g of feed/day/quail). Egg laying was registered daily and the weekly laying rate was calculated as: (number of eggs / 7 days) x 100. Egg weight, quality characteristics (such as intact, membranous, soft shell and broken shell), morphometric characteristics (egg shape index = (egg width / egg length) x 100) and percentage of constituents (egg yolk, albumen and shell) were registered at each sampling point.

[3] = overall mean over BASAL, VEHICLE and 2, 4, 6.25 g thymol/kg feed diets and five sampling times, no effect of diet

## Cc1ccc(C(C)C)c(O)c1 [THY, 2 isopropyl-5-methylphenol]
[1]; THY2, 2 g of thymol/kg of feed, 2 days of S
  Percentage of THY transferred to egg yolk in relation to the amount ingested: 0.02%
[1]; THY2, 2 g of thymol/kg of feed, 9 days of S
  Percentage of THY transferred to egg yolk in relation to the amount ingested: 0.23%
[1]; THY2, 2 g of thymol/kg of feed, 16 days of S
  Percentage of THY transferred to egg yolk in relation to the amount ingested: 0.22%
[1]; THY2, 2 g of thymol/kg of feed, 26 days of S
  Percentage of THY transferred to egg yolk in relation to the amount ingested: 0.25%
[1]; THY2, 2 g of thymol/kg of feed, pS, 17 days of supplement withdrawal
  Percentage of THY transferred to egg yolk in relation to the amount ingested: 0.03%
[1]; THY4, 4 g of thymol/kg of feed, 2 days of S
  Percentage of THY transferred to egg yolk in relation to the amount ingested: 0.01%
[1]; THY4, 4 g of thymol/kg of feed, 9 days of S
  Percentage of THY transferred to egg yolk in relation to the amount ingested: 0.17%
[1]; THY4, 4 g of thymol/kg of feed, 16 days of S
  Percentage of THY transferred to egg yolk in relation to the amount ingested: 0.17%
[1]; THY4, 4 g of thymol/kg of feed, 26 days of S
  Percentage of THY transferred to egg yolk in relation to the amount ingested: 0.16%
[1]; THY4, 4 g of thymol/kg of feed, pS, 17 days of supplement withdrawal
  Percentage of THY transferred to egg yolk in relation to the amount ingested: 0.02%
[1]; THY6, 6.25 g of thymol/kg of feed, 2 days of S
  Percentage of THY transferred to egg yolk in relation to the amount ingested: 0.02%
[1]; THY6, 6.25 g of thymol/kg of feed, 9 days of S
  Percentage of THY transferred to egg yolk in relation to the amount ingested: 0.14%
[1]; THY6, 6.25 g of thymol/kg of feed, 16 days of S
  Percentage of THY transferred to egg yolk in relation to the amount ingested: 0.13%
[1]; THY6, 6.25 g of thymol/kg of feed, 26 days of S
  Percentage of THY transferred to egg yolk in relation to the amount ingested: 0.13%
[1]; THY6, 6.25 g of thymol/kg of feed, pS, 17 days of supplement withdrawal
  Percentage of THY transferred to egg yolk in relation to the amount ingested: 0.03%
[1]; during the plateau, across THY2, THY4, THY6
  THY transferred to the egg yolk, of the amount THY ingested: 0.13–0.25%
[1]; equivalent of 406 ng/g of egg yolk
  highest concentration of THY detected in egg yolk, molar equivalent: ~ 3.05 uM
[1]; 2 g/kg of feed, THY2, 2 g of thymol/kg of feed, 2 days of S
  concentration at 2 days of supplementation: 12.5 ng/g
[1]; 2 g/kg of feed, THY2, 2 g of thymol/kg of feed, 9 days of S
  concentration at 9 days of supplementation: 156 ng/g
[1]; 2 g/kg of feed, THY2, 2 g of thymol/kg of feed, 16 days of S
  concentration at 16 days of supplementation: 150 ng/g
[1]; 2 g/kg of feed, THY2, 2 g of thymol/kg of feed, 26 days of S
  concentration at 26 days of supplementation: 169 ng/g
[1]; 2 g/kg of feed, THY2, 2 g of thymol/kg of feed, pS, 17 days of supplement withdrawal
  concentration at 17 days after supplement withdrawal: 17.9 ng/g
[1]; 4 g/kg of feed, THY4, 4 g of thymol/kg of feed, 2 days of S
  concentration at 2 days of supplementation: 26.1 ng/g
[1]; 4 g/kg of feed, THY4, 4 g of thymol/kg of feed, 9 days of S
  concentration at 9 days of supplementation: 297 ng/g
[1]; 4 g/kg of feed, THY4, 4 g of thymol/kg of feed, 16 days of S
  concentration at 16 days of supplementation: 295 ng/g
[1]; 4 g/kg of feed, THY4, 4 g of thymol/kg of feed, 26 days of S
  concentration at 26 days of supplementation: 282 ng/g
[1]; 4 g/kg of feed, THY4, 4 g of thymol/kg of feed, pS, 17 days of supplement withdrawal
  concentration at 17 days after supplement withdrawal: 36.3 ng/g
[1]; 6.25 g/kg of feed, THY6, 6.25 g of thymol/kg of feed, 2 days of S
  concentration at 2 days of supplementation: 42.9 ng/g
[1]; 6.25 g/kg of feed, THY6, 6.25 g of thymol/kg of feed, 9 days of S
  concentration at 9 days of supplementation: 407 ng/g
[1]; 6.25 g/kg of feed, THY6, 6.25 g of thymol/kg of feed, 16 days of S
  concentration at 16 days of supplementation: 372 ng/g
[1]; 6.25 g/kg of feed, THY6, 6.25 g of thymol/kg of feed, 26 days of S
  concentration at 26 days of supplementation: 377 ng/g
[1]; 6.25 g/kg of feed, THY6, 6.25 g of thymol/kg of feed, pS, 17 days of supplement withdrawal
  concentration at 17 days after supplement withdrawal: 69.5 ng/g
[1]; highest of the study
  highest concentration of THY detected in egg yolk: ~406 ng/g of egg yolk
[2]; 2, 4, 6.25 g of THY/kg feed
  effect on physical egg traits: did not affect
[2]; 2, 4, 6.25 g of THY/kg feed vs controls, 28 days S and 21 days pS
  effect of the diet supplied on performance variables (body weight, feed intake, egg laying, morphometric characteristics and constituents of eggs): no effects
[2]; (egg width / egg length) x 100, overall mean over BASAL, VEHICLE and 2, 4, 6.25 g thymol/kg feed diets and five sampling times, no effect of diet
  Egg shape index: 79.5%
[2]; no differences between treatments, all diets
  daily feed intake: 30.3 ± 1 g/day/animal
[2]; [3]
  Egg albumen: 48.6%
  Egg shell: 14.4%
  Egg weight: 11.3 g
  Egg yolk: 37.0%
  Weekly Body Weight per individual: 254 g
  Weekly Feed Intake per individual: 212 g
[2]; overall mean over BASAL, VEHICLE and 2, 4, 6.25 g thymol/kg feed diets, no effect of diet
  Cumulative number of eggs: 42
